This passage reports IC50 and inhibition results from US10633382B2, “Imidazopyrazinones, pyrazolopyrimidinones and pyrazolopyridinones as PDE1 inhibitors” (H. Lundbeck A/S, priority 2016, dated 2020).

What all share (assay type): biochemical
One test concerns the target PDE1A (Homo sapiens, UniProt P54750). As to the kind of experiment: PDE1 inhibition assay (PDE1A). Particulars: 15 nM tritium labelled cAMP, SPA. The protocol: (§1) PDE1A, PDE1B and PDE1C assays were performed as follows: the assays were performed in 60 μL samples containing a fixed amount of the PDE1 enzyme (sufficient to convert 20-25% of the cyclic nucleotide substrate), a buffer (50 mM HEPES (4-(2-hydroxyethyl)-1-piperazineethanesulfonic acid) pH 7.6; 10 mM MgCl2; 0.02% Tween20), 0.1 mg/ml BSA (bovine serum albumin), 15 nM tritium labelled cAMP and varying amounts of inhibitors. Reactions were initiated by addition of the cyclic nucleotide substrate, and reactions were allowed to proceed for 1 hr at room temperature before being terminated through mixing with 20 μL (0.2 mg) yttrium silicate SPA beads (PerkinElmer). The beads were allowed to settle for 1 hour in the dark before the plates were counted in a Wallac 1450 Microbeta counter. The measured signals were converted to activity relative to an uninhibited control (100%) and IC50 values were calculated using XlFit (model 205, IDBS).

Another test concerns the target PDE1B (Homo sapiens, UniProt Q01064). In words: PDE1 inhibition assay (PDE1B). Particulars: 15 nM tritium labelled cAMP, SPA. The procedure: as §1
The next test has as its target PDE1C (Homo sapiens, UniProt Q14123). As to the kind of experiment: PDE1 inhibition assay (PDE1C). Particulars: 15 nM tritium labelled cAMP, SPA. The procedure:
as §1

Another test deals with PDE9 (Homo sapiens, UniProt O76083). As to the kind of experiment: PDE9 inhibition assay. Particulars: 10 μM of inhibitor. The protocol:
A PDE9 assay may for example, be performed as follows: The assay is performed in 60 μL samples containing a fixed amount of the relevant PDE enzyme (sufficient to convert 20-25% of the cyclic nucleotide substrate), a buffer (50 mM HEPES pH 7.6; 10 mM MgCl2; 0.02% Tween20), 0.1 mg/ml BSA, 225 pCi of ^3H-labelled cyclic nucleotide substrate, tritium labeled cAMP to a final concentration of 5 nM and varying amounts of inhibitors. Reactions are initiated by addition of the cyclic nucleotide substrate, and reactions are allowed to proceed for one hr at room temperature before being terminated through mixing with 15 μL 8 mg/mL yttrium silicate SPA beads (Amersham). The beads are allowed to settle for one hr in the dark before the plates are counted in a Wallac 1450 Microbeta counter. The measured signal can be converted to activity relative to an uninhibited control (100%) and IC50 values can be calculated using the Xlfit extension to EXCEL.
In the context of the present invention the assay was performed in 60 μL assay buffer (50 mM HEPES pH 7.6; 10 mM MgCl2; 0.02% Tween20) containing enough PDE9 to convert 20-25% of 10 nM ^3H-cAMP, and […] 10 μM of inhibitor. Following 1 hr incubation the reactions were terminated by addition of 15 μL 8 mg/mL yttrium silicate SPA beads (Amersham). The beads were allowed to settle for one hr in the dark before the plates were counted in a Wallac 1450 Microbeta counter.

PDE9, sequence (O76083 whole entry): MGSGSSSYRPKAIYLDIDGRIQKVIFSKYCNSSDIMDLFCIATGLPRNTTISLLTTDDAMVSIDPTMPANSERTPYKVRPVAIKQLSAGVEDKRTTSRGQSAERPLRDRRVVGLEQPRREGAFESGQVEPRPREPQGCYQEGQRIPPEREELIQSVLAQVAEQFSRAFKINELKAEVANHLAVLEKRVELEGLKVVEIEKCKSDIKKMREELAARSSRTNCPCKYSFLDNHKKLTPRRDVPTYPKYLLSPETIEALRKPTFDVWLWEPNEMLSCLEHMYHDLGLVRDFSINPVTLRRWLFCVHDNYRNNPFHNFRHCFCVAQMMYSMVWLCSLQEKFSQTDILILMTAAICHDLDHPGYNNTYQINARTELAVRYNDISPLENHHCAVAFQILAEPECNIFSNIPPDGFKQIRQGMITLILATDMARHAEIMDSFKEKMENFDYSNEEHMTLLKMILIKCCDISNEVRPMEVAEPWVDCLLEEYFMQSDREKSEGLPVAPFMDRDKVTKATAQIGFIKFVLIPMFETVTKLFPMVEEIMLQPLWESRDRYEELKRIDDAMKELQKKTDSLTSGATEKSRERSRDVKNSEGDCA
PDE1A, sequence (P54750 whole entry): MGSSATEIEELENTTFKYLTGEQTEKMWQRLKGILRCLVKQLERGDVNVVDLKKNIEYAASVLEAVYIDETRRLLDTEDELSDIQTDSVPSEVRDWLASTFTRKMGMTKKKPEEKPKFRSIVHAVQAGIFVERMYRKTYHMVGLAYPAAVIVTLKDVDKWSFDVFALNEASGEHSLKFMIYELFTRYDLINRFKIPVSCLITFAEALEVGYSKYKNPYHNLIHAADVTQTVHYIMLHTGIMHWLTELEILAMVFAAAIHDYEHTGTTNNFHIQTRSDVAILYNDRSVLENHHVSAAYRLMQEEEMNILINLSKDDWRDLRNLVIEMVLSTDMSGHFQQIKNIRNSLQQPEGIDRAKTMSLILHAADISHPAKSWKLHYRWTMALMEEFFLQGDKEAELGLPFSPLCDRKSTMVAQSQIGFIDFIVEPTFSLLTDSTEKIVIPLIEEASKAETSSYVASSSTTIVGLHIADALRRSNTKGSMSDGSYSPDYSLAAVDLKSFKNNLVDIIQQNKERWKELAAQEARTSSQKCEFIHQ
PDE1B, sequence (Q01064 whole entry): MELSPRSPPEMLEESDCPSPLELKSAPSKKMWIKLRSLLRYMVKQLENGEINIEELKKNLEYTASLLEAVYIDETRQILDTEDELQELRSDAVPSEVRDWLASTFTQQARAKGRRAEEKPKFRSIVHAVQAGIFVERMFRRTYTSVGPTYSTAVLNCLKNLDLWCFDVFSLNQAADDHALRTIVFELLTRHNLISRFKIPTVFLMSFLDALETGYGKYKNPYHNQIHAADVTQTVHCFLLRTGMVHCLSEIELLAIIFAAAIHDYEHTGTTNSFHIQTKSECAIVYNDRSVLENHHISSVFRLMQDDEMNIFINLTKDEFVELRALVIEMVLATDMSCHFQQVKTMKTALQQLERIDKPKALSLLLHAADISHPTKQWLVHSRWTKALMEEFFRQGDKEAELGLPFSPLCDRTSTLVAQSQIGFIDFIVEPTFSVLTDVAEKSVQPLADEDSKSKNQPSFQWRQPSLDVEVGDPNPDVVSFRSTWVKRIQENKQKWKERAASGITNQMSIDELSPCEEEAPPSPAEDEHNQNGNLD
PDE1C, sequence (Q14123 whole entry): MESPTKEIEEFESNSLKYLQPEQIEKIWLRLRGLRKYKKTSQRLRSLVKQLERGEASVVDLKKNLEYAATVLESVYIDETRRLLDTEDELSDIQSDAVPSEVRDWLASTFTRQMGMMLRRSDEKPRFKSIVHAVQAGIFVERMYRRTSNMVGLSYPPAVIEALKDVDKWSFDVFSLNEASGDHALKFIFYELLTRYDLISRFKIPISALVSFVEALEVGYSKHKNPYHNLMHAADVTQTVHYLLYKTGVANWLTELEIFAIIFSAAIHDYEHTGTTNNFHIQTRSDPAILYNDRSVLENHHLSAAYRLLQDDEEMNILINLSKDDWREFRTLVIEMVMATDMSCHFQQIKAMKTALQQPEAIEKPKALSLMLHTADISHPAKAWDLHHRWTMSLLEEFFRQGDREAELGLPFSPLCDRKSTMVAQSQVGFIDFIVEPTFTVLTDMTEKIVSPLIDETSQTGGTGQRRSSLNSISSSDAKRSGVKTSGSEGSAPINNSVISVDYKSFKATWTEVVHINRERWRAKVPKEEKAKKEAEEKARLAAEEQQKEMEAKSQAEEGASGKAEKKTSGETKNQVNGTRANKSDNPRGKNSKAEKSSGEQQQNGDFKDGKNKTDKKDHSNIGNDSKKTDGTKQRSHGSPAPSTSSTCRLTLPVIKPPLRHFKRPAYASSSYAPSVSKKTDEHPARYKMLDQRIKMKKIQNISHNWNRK

As usually defined, the IC50 is the concentration needed to halve the response being measured. High values mean weaker potency in that assay, low ones greater potency in that assay. The term inhibition denotes the drop in the measured response relative to a control, in per cent. Turning to `Cn1c(Cc2ccc(-c3ccccc3)cc2)cn2c(C3CCOCC3)ncc2c1=O` [Example 19, 7-methyl-6-[(4-phenylphenyl)methyl]-3-tetrahydropyran-4-yl-imidazo[1,5-a]pyrazin-8-one], the half-maximal inhibitory concentration (IC50) against PDE1A amounted to 28 nM; against PDE1B, 7.3 nM; at PDE1C it was 61 nM. The same molecule showed an inhibition at 10 µM at PDE9 of 7%.

Consider `COc1ccc(Cn2c(CN3CCN(c4ccccn4)CC3)cn3c(C4CCOCC4)ncc3c2=O)cc1` [Example 7, 7-[(4-methoxyphenyl)methyl]-6-[[4-(2-pyridyl)piperazin-1-yl]methyl]-3-tetrahydropyran-4-yl-imidazo[1,5-a]pyrazin-8-one], for which the IC50 is 88 nM against PDE1A, 13 nM on PDE1B and 190 nM on PDE1C. The molecule further came in with an inhibition at 10 µM against PDE9 of 19%.

As for `CCc1ncc2c(=O)n(C)c(Cc3ccc(-c4cccc(F)n4)cc3)cn12` [Example 23, 3-ethyl-6-(4-(6-fluoropyridin-2-yl)benzyl)-7-methylimidazo[1,5-a]pyrazin-8(7H)-one], the IC50 against PDE1A stood at 176 nM; against PDE1B, 56 nM; against PDE1C, 578 nM. Besides, the inhibition at 10 µM against PDE9 came out at 17%.

As for `Cc1cccc(-c2ccc(Cc3cc4c(cnn4C4CCOCC4)c(=O)n3C)cc2)n1` [Example 1, 5-methyl-6-[[4-(6-methyl-2-pyridyl)phenyl]methyl]-1-tetrahydropyran-4-yl-pyrazolo[4,3-c]pyridin-4-one], the IC50 stood at 150 nM against PDE1A, 32 nM against PDE1B and 220 nM against PDE1C. Further, on PDE9, the inhibition at 10 µM was 10%.
